Test results reported in article PMC6271274, “Synthesis, Leishmanicidal Activity and Theoretical Evaluations of a Series of Substituted bis-2-Hydroxy-1,4-Naphthoquinones” (Molecules, 2014).
Several values for one entry are separate records, joined by “and”; a condition that tells them apart may be missing. Equal values may be shown once.

Experiments:
[1] = test system: L. amazonensis; test: In vivo activity against Leishmania amazonensis in infected BALB/c mice; details: 30 μmol/kg/day × 28 days, i.p.; for Parasite load in the draining lymph node / Parasite load in the infected ear: limiting-dilution assay
Excerpt: (§1) This study was approved (protocol no. 2013.02) by the Ethics Committee for Animal Experimentation of the Federal University of Alagoas (Brazil). All animals received humane care in compliance with the “Principles of laboratory animal care” formulated by the National Society for Medical Research and the “Guide for the care and use of laboratory animals” prepared by the National Academy of Sciences (Washington, DC, USA). Next, 1 × 10^5 stationary promastigotes (5 days of culture in Schneider’s medium) of L. amazonensis (MHOM/BR/77/LTB0016) were subcutaneously inoculated into the right ear dermis of 6-week-old female BALB/c mice weighing ca. 20 g. and were later intraperitoneally treated with 3a or glucantime at 30 μmol/kg × 28 days. The lesion size was measured using a paquimeter. The parasite loads of infected ears and draining lymph nodes were determined using a quantitative limiting-dilution assay. Complex toxicity was also evaluated through biochemistry dosages in plasma. The experimental data were expressed as the mean ± S.E.M., and the significant differences between the treated and vehicle groups were evaluated using ANOVA and Dunnett post-hoc tests.

[2] = test system: L. amazonensis promastigotes; test: In vitro activity against L. amazonensis promastigotes; format: cell-based; details: Leishmania amazonensis, 48 h; for IC50: maximal concentration 100 μM; for Emax: up to 100 μM, read-out: Maximum Effect
Method: (§2) L. braziliensis promastigotes (MHOM/BR/87/BA788) were obtained from Dra. Valéria de Matos Borges at the Gonçalo Moniz Research Center, Fiocruz_BA. L. amazonensis promastigotes (MHOM/BR/77/LTB0016) were obtained from Dr. Eduardo Caio Torres dos Santos at the Oswaldo Cruz Institute-Fiocruz_RJ. The parasites were maintained in vitro in Schneider’s medium supplemented with 10% FBS and 2% human urine at 27 °C in BOD incubator.
(§3) The parasites were maintained in vitro in Schneider’s medium supplemented with 10% FBS and 2% human urine. Novel bis-lawsone analog stock solutions and pentamidine (reference leishmanicidal drug) were prepared in DMSO immediately before use. The cytotoxicities of the bis-lawsone analogs and pentamidine against the promastigotes were determined. Stationary phase L. braziliensis and L. amazonensis promastigotes were plated in 96-well vessels (Nunc, Roskilde, Denmark) at 1 × 10^5 cells per well in Schneider’s medium supplemented with 10% FBS and 2% human urine. Each compound solution was added at increasing concentrations (0.1–100 mg to the extract and its phases or 0.1–100 µΜ to the isolates and pentamidine). The cells were also cultured in a medium free of compounds, a vehicle (basal growth control) or with DMSO 0.1% (vehicle control). After 48 h, the extracellular load for L. braziliensis and L. amazonensis promastigotes was estimated by counting the promastigotes in Schneider’s medium using a CELM automatic cell counter (model CC530, Barueri, Brazil). The data obtained from experiments were expressed as the mean ± S.E.M., and the significant differences between the treated and vehicle groups were evaluated using ANOVA and Dunnett post-hoc tests.

[3] = In vivo toxicity (spleen weight, plasma biochemistry) in infected BALB/c mice; details: BALB/c mice infected with L. amazonensis, 30 μmol/kg/day × 28 days, i.p.
Excerpt: as §1

[4] = test system: J774 cell line; test: Cytotoxicity against host cells (MTT assay); format: cell-based; details: for Effect on J774 cell line viability / cytotoxicity to the host cells (in words): 48 h of incubation, at 100 µM; for Maximum Cytotoxicity: J774 macrophages, MTT assay, 48 h, NT = no significant lethal activity to cell until 100 M (printed) compared to DMSO group
Method: (§4) The adherent-phenotype macrophage line was cultured in Dulbecco’s Modified Eagle’s medium (DMEM, Sigma, Dublin, Ireland) supplemented with 10% FBS at 37 °C, 95% humidity and 5% CO2.
(§5) To evaluate the cytotoxicity activity against the J774 cell line, the host cells were plated in 96-well vessels at 2 × 10^5 cells per well in a complete culture medium with 10% FBS at 37 °C. After 1 h, the wells were washed with HBSS to remove non-adherent cells, leaving approximately 1 × 10^5 adherent macrophages. The cells were cultured in DMEM complete medium supplemented with 10% FBS. The compounds and pentamidine were added at serial concentrations (0.1–100 µM). The cells were also cultured in media free from compounds, a vehicle (basal growth control) or media with DMSO 0.1% (vehicle control). The positive control (dead cells) was obtained through cellular lyses with 1% of Triton X-100 in DMEM complete medium. After 48 h, the cytotoxicity was evaluated using the MTT assay. The data obtained from the experiments were expressed as the mean ± S.E.M., and the significant differences between the treated and vehicle groups were evaluated using ANOVA and Dunnett post-hoc tests.

[5] = Cytotoxicity against host cells (MTT assay); format: cell-based; details: mouse, J774 macrophage cell line; J774 macrophages, MTT assay, 48 h, maximal concentration 100 μM; read-out: LC50
Method: as §4, §5

[6] = test system: L. braziliensis promastigotes; test: In vitro activity against L. braziliensis promastigotes; format: cell-based, Leishmania braziliensis; details: for IC50 / Emax: Leishmania braziliensis, L. braziliensis promastigotes, 48 h; for IC50: maximal concentration 100 μM; for Emax: NT = no significant inhibitory activity for the parasite to 100 M (printed) compared to DMSO group, read-out: Maximum Effect; for Selectivity: IC50 to L. braziliensis lower than IC50 to L. amazonensis: ratio of promastigote IC50 values
Method: as §2, §3

[7] = test system: Leishmania; set-up: method as in PMID 15654435; details: cited from earlier work
[8] = test system: promastigote forms; details: stated as reason for choice of reference drug; no reference given; cited from earlier work
[9] = test system: L. amazonensis; set-up: method as in PMID 15654435; details: promastigotes; cited from earlier work
[10] = test system: L. braziliensis; set-up: method as in PMID 15654435; details: promastigotes; cited from earlier work

Row | Compound | IC50 [2] | Emax [2] | CC50 at 48 h [5] | IC50 [6] | Emax [6] | other results
1 | O=C1C(O)=C(CC2=C(O)C(=O)c3ccccc3C2=O)C(=O)c2ccccc21 [Compound 3a, 3,3'-(Methylene)-bis[2-hydroxy-1,4-naphthalenedione]] | 71 ± 1.1 µM | 72.8 ± 1% | > 100 µM | 0.9 ± 0.08 µM | 88.4 ± 0.9% | Parasite load in the draining lymph node [1]: did not decrease; Parasite load in the infected ear [1]: did not decrease; Lesion size for the infected ear ([1]; third week after the treatment began): decreased; Alanine aminotransferase (ALT) in plasma [3]: nor altered; Aspartate aminotransferase (AST) in plasma [3]: nor altered; Spleen weight ([3]; last day of treatment): neither induced a change; Effect on J774 cell line viability / cytotoxicity to the host cells (in words) [4]: without cytotoxicity; Selectivity: IC50 to L. braziliensis lower than IC50 to L. amazonensis [6]: 10 times
2 | CC(C)=CCC1=C(O)C(=O)c2ccccc2C1=O [Lapachol] |  |  |  |  |  | Antileishmanial activity (in words) [7]: significant activity
3 | meglumine antimoniate [glucantime, reference compound] |  |  |  |  |  | Parasite load in the draining lymph node [1]: did not decrease; Parasite load in the infected ear [1]: did not decrease; Activity against promastigote forms (in words) [8]: not active
4 | O=C1C(O)=C(C(C2=C(O)C(=O)c3ccccc3C2=O)c2ccccc2)C(=O)c2ccccc21 [Compound 3d, 3,3'-(Phenylmethylene)-bis[2-hydroxy-1,4-naphthalenedione]] | 0.3 ± 0.1 µM | 85 ± 3.8% | > 100 µM | > 100 µM |  | Activity against promastigote forms of L. braziliensis (in words) ([6]; until 100 µM): did not present activity
5 | O=C1C(O)=C(C(C2=C(O)C(=O)c3ccccc3C2=O)c2ccc([N+](=O)[O-])cc2)C(=O)c2ccccc21 [Compound 3g, 3,3'-(4-Nitrophenylmethylene)-bis[2-hydroxy-1,4-naphthalenedione]] | 7.7 ± 1.2 µM | 55.6 ± 3.2% | > 100 µM | 2.8 ± 0.1 µM | 91.7 ± 1.3% | 
6 | N=C(N)c1ccc(OCCCCCOc2ccc(C(=N)N)cc2)cc1 [Pentamidine, reference compound] | 2.3 ± 0.8 µM | 85.4 ± 0.4% | 73 ± 6 µM | 0.8 ± 0.06 µM | 91 ± 0.1% | Maximum Cytotoxicity [4]: 78.0 ± 3.8 %; Maximum Cytotoxicity ([4]; listed as pentamidine): 78.0% ± 3.8%
7 | CC(=O)OC1=C(C=CC(C)C)C(=O)c2ccccc2C1=O [isolapachol acetate] |  |  |  |  |  | IC50 [9]: 1.6 µg/mL; IC50 [10]: 3.4 µg/mL
8 | CC(C)CCC1=C(O)C(=O)c2ccccc2C1=O [dihydrolapachol] |  |  |  |  |  | Antileishmanial activity (in words) [7]: significant activity
9 | O=C1C(O)=C(C(C2=C(O)C(=O)c3ccccc3C2=O)c2ccc(F)cc2)C(=O)c2ccccc21 [Compound 3h, 3,3'-(4-Fluorophenylmethylene)-bis[2-hydroxy-1,4-naphthalenedione]] | 0.6 ± 0.2 µM | 51 ± 5.5% | > 100 µM | 0.8 ± 0.03 µM | 88.7 ± 0.3% | Effect on J774 cell line viability / cytotoxicity to the host cells (in words) [4]: without cytotoxicity
10 | COc1ccc(C(C2=C(O)C(=O)c3ccccc3C2=O)C2=C(O)C(=O)c3ccccc3C2=O)cc1 [Compound 3e, 3,3'-(4-Methoxyphenylmethylene)-bis[2-hydroxy-1,4-naphthalenedione]] | > 100 µM | 44.6 ± 2.4% | > 100 µM | 0.9 ± 0.04 µM | 61.6 ± 7.5% | Effect on J774 cell line viability / cytotoxicity to the host cells (in words) [4]: without cytotoxicity; Selectivity: IC50 to L. braziliensis lower than IC50 to L. amazonensis [6]: 10 times
11 | O=C1C(O)=C(C(C2=C(O)C(=O)c3ccccc3C2=O)c2ccc(O)cc2)C(=O)c2ccccc21 [Compound 3f, 3,3'-(4-Hydroxyphenylmethylene)-bis[2-hydroxy-1,4-naphthalenedione]] | 68.7 ± 15.1 µM | 55.4 ± 4.7% | > 100 µM | 38.7 ± 2 µM | 91.7 ± 0.3% | 
12 | CCCCCC(C1=C(O)C(=O)c2ccccc2C1=O)C1=C(O)C(=O)c2ccccc2C1=O [Compound 3b, 3,3'-(Hexylidene)-bis[2-hydroxy-1,4-naphthalenedione]] | 5.2 ± 0.1 µM | 57.2 ± 3.8% | > 100 µM | 5.2 ± 0.1 µM | 93 ± 0.1% | Effect on J774 cell line viability / cytotoxicity to the host cells (in words) [4]: without cytotoxicity
13 | isolapachol |  |  |  |  |  | Antileishmanial activity (in words) [7]: significant activity
14 | CCC(CC)C(C1=C(O)C(=O)c2ccccc2C1=O)C1=C(O)C(=O)c2ccccc2C1=O [Compound 3c, 3,3'-(2-Ethylbutylidene)-bis[2-hydroxy-1,4-naphthalenedione]] | 0.4 ± 0.1 µM | 75.3 ± 1.3% | 67.4 ± 2.1 µM | 34.7 ± 4.3 µM | 90.4 ± 0.7% | Maximum Cytotoxicity [4]: 71.7% ± 3.8% and 71.7 ± 3.8 %
